Where no end group is shown, it is not given here.
Experiments:
[1] = system: E. coli BW25113 ΔsbmA; assay type: cell-based; conditions: MHB II, 18 h, 37°C, averaged (n>3)
Description: Bacterial cells were grown in cation-adjusted Mueller Hinton Broth (MHB II) overnight to stationary phase. The cultures were then supplemented with 200 g l^−1 glycerol, aliquoted, and frozen at −80°C. […] The purified peptides were thawed and the concentration was determined by RP-HPLC as described before. The peptides were diluted with sterile water to 4-fold the desired assays starting concentration and to a final volume of 50 μl. […] The first well of each MIC dilution series was filled with 20 μl of 2-fold concentrated MHB II, wells 2–11 with 20 μl of MHB II, and well 12 with 40 μl MHB II (sterility control). Next, 20 μl of the peptide dilution was added to the first well, mixed, and a log2-serial dilution was performed from wells 1 to 10 (20 μl transfer volume). Well 11 served as growth control (i.e., no peptide added). In the last step, 20 μl of the bacterial cell suspension was added to wells 1–11 either using the pipetting robot (E. coli TOP10, BW25113, BW25113 ΔsbmA, and ATCC 25922) or by manual pipetting (E. coli clinical isolates). The plates were sealed airtight and incubated for 18 h without shaking at 37°C before reading the OD using an Infinite 200 PRO plate reader (Tecan, Männedorf, CH). The MIC value corresponded to the concentration at which no growth of the bacterial strain was observed (< 5% of the OD value of the growth control) and was evaluated using a custom-written script in the programming language R. MIC values of E. coli TOP10, BW25113, BW25113 ΔsbmA, and ATCC 25922 were determined at least in biological triplicates. All MIC experiments were determined in technical replicate.

[2] = system: E. coli TOP10; test: Membrane damage assay in MHB II (GFP loss, PI uptake); assay type: cell-based; conditions: n = 3
[3] = system: HeLa cells; test: In vitro toxicity assay (MTT), HeLa; assay type: cell-based, human
Description: HeLa epithelioid cervix carcinoma cells (originally purchased: 93021013, Sigma Aldrich) and HEK 293 human embryonic kidney (originally purchased: 85120602, Sigma Aldrich) were routinely cultivated in Dulbecco’s MEM high glucose (DMEM, with L-glutamine, without phenol red, 1-26P32, Bioconcept, Allschwil, CH), supplemented with 10% fetal bovine serum (heat inactivated, sterile filtered, F9665, Sigma Aldrich) and 100 IU ml^−1/100 μg ml^−1 Penicillin/streptomycin (4-01F00, Bioconcept) at 37°C with 5% CO2. Cells were split at a confluency of ≤ 90% (every 3 to 4 days) and maintained for max. 10 passages before a fresh aliquot of cells were seeded. […] The cell concentration was determined using a Countess 2 device (Thermo Fisher Scientific) and approx. 5000 (HeLa) or 25,000 (HEK 293) cells were seeded into wells of a 96-well plate (F-bottom, PS, 655180, Greiner) together with 100 μl DMEM. […] For each dilution series, the IC50 value was determined by computing a weighted n-parameters logistic regression using the “nplr” package in R (https://CRAN.R-project.org/package=nplr). […]

[4] = system: HEK 293 ribosomes; test: In vitro translation inhibition assay, HEK 293 S30 extract; assay type: biochemical, human; conditions: firefly luciferase mRNA, 800 to 0.08 μM, 1 h, 37°C, n = 9, p<10^−5, Wilcoxon
Description: To measure inhibition of the HEK 293 ribosome, an S30 extract was prepared from HEK 293-F cells. Suspension cultures of HEK 293-F cells (Gibco, Thermo Fisher) were maintained in 293 SFM II medium (Thermo Fisher) supplemented with 4 mM of L-glutamine according to the manufacturer’s instructions. Cells in the logarithmic phase were harvested by centrifugation for 18 min at 200 × g at 4°C. The cell pellet was washed twice with ice-cold PBS and pelleted again for 5 min at 200 × g at 4°C. Subsequently, cells were washed twice with ice-cold washing buffer (35 mM HEPES-KOH buffer pH 7.4, 146 mM NaCl, 11 mM D-(+)-glucose) and centrifuged for 5 min at 200 × g and 4°C. Cells were then resuspended in twice the volume of hypotonic buffer (20 mM HEPES-KOH buffer pH7.4, 10 mM KCl, 1.5 mM magnesium acetate, 1 mM DTT) and incubated for 10 min on ice. Cells were disrupted using a glass Dounce tissue homogenizer (Kimble, DWK Life Sciences, Mainz, Germany). After disruption, 0.1 volume of 10fold buffer (200 mM HEPES-KOH buffer pH 7.4, 1.2 M potassium acetate, 40 mM magnesium acetate, 50 mM DTT) of the total amount of hypotonic buffer was added. Cell debris was pelleted by centrifuging the lysate for 10 min at 700 × g at 4°C. The supernatant was then centrifuged for 15 min at 30,000 × g at 4°C.
(BIO-TEK FLx80, Witec AG, Littau, CH). […] Y=Bottom + (Top-Bottom)/(1+10^((X-LogIC50)))”.

[5] = approximately 16-fold above its MIC (~35 μM)
[6] = at the MIC up to 8-fold higher concentrations

## RRIRIRPPRLPRPRPRPYFMPRP [Bac7PS]
[1]
  MIC: 14.4 µM
[2]; [5]
  PI-positive cells: ~ 3%
  cells that lost GFP: 26%
[2]; [6]
  PI-positive cells: ~ 1%
  cells that retained GFP levels: ~ 99%
[3]; HeLa, MTT, 24 h, 37°C, triplicates
  IC50: 521 µM
[3]; IC50 HeLa divided by MIC50 from clinical isolates
  therapeutic index (TI), Toxicity/MIC: 180
[4]
  mean increase in ribosomal binding (translation inhibition IC50), HEK 293 ribosomes, compared to Bac7_1-23: 38%
